Tests used:
Assay in all cases: Kinase panel, residual activity
Assay type in all cases: biochemical
Details in all cases: read-out: Percent residual activity
[1] = molecular target: MSK1(h) (Homo sapiens, UniProt O75582)
Method: (§1) In this panel of 124 kinases, 18 of the 19 kinases identified as having an active site cysteine were inhibited to some extent by hypothemycin at a concentration of 0.2 μM and/or 2 μM.

[2] = molecular target: PKBγ(h) (Homo sapiens, UniProt Q9Y243)
Method: as §1

[3] = molecular target: Bmx(h) (Homo sapiens, UniProt P51813)
Method: as §1

[4] = molecular target: c-RAF(h) (Homo sapiens, UniProt P04049)
Method: as §1

[5] = molecular target: CaMKIV(h) (Homo sapiens, UniProt Q16566)
Method: as §1

[6] = molecular target: CSK(h) (Homo sapiens, UniProt P41240)
Method: as §1

[7] = molecular target: DDR2(h) (Homo sapiens, UniProt Q16832)
Method: as §1

[8] = molecular target: PKCδ(h) (Homo sapiens, UniProt Q05655)
Method: as §1

[9] = molecular target: MAPKAP-K2(h) (Homo sapiens, UniProt P49137)
Method: as §1

[10] = molecular target: Plk3(h) (Homo sapiens, UniProt Q9H4B4)
Method: as §1

[11] = molecular target: Ret(h) (Homo sapiens, UniProt P07949)
Method: as §1

[12] = molecular target: BRK(h) (Homo sapiens, UniProt Q13882)
Method: as §1

[13] = molecular target: PDK1(h) (Homo sapiens, UniProt O15530)
Method: as §1

[14] = molecular target: SAPK4(h) (Homo sapiens, UniProt O15264)
Method: as §1

[15] = molecular target: IR(h) (Homo sapiens, UniProt P06213)
Method: as §1

[16] = molecular target: PAR-1Bα(h) (Homo sapiens, UniProt Q7KZI7)
Method: as §1

[17] = molecular target: IRAK4(h) (Homo sapiens, UniProt Q9NWZ3)
Method: as §1

[18] = molecular target: Fgr(h) (Homo sapiens, UniProt P09769)
Method: as §1

[19] = molecular target: SGK(h) (Homo sapiens, UniProt O00141)
Method: as §1

[20] = molecular target: CHK1(h) (Homo sapiens, UniProt O14757)
Method: as §1

[21] = molecular target: Yes(h) (Homo sapiens, UniProt P07947)
Method: as §1

[22] = molecular target: PKCη(h) (Homo sapiens, UniProt P24723)
Method: as §1

[23] = molecular target: SAPK2a(h) (Homo sapiens, UniProt Q16539)
Method: as §1

[24] = molecular target: PKCβI(h) (Homo sapiens, UniProt P05771)
Method: as §1

[25] = molecular target: Rse(h) (Homo sapiens, UniProt Q06418)
Method: as §1

[26] = molecular target: PKBα(h) (Homo sapiens, UniProt P31749)
Method: as §1

[27] = molecular target: Pim-1(h) (Homo sapiens, UniProt P11309)
Method: as §1

[28] = molecular target: EphB4(h) (Homo sapiens, UniProt P54760)
Method: as §1

[29] = molecular target: MKK6(h) (Homo sapiens, UniProt P52564)
Method: as §1

[30] = molecular target: PKCε(h) (Homo sapiens, UniProt Q02156)
Method: as §1

[31] = molecular target: ZAP-70(h) (Homo sapiens, UniProt P43403)
Method: as §1

[32] = molecular target: MEK1(h) (Homo sapiens, UniProt Q02750)
Method: as §1

[33] = molecular target: FGFR3(h) (Homo sapiens, UniProt P22607)
Method: as §1

[34] = molecular target: ALK(h) (Homo sapiens, UniProt Q9UM73)
Method: as §1

[35] = molecular target: Fer(h) (Homo sapiens, UniProt P16591)
Method: as §1

[36] = molecular target: MAPK1(h) (Homo sapiens, UniProt P27361)
Method: as §1

[37] = molecular target: PKCζ(h) (Homo sapiens, UniProt Q05513)
Method: as §1

[38] = molecular target: Flt1(h) (Homo sapiens, UniProt P17948)
Method: as §1

[39] = molecular target: NEK6(h) (Homo sapiens, UniProt Q9HC98)
Method: as §1

Flt1(h), sequence (P17948 27-1338): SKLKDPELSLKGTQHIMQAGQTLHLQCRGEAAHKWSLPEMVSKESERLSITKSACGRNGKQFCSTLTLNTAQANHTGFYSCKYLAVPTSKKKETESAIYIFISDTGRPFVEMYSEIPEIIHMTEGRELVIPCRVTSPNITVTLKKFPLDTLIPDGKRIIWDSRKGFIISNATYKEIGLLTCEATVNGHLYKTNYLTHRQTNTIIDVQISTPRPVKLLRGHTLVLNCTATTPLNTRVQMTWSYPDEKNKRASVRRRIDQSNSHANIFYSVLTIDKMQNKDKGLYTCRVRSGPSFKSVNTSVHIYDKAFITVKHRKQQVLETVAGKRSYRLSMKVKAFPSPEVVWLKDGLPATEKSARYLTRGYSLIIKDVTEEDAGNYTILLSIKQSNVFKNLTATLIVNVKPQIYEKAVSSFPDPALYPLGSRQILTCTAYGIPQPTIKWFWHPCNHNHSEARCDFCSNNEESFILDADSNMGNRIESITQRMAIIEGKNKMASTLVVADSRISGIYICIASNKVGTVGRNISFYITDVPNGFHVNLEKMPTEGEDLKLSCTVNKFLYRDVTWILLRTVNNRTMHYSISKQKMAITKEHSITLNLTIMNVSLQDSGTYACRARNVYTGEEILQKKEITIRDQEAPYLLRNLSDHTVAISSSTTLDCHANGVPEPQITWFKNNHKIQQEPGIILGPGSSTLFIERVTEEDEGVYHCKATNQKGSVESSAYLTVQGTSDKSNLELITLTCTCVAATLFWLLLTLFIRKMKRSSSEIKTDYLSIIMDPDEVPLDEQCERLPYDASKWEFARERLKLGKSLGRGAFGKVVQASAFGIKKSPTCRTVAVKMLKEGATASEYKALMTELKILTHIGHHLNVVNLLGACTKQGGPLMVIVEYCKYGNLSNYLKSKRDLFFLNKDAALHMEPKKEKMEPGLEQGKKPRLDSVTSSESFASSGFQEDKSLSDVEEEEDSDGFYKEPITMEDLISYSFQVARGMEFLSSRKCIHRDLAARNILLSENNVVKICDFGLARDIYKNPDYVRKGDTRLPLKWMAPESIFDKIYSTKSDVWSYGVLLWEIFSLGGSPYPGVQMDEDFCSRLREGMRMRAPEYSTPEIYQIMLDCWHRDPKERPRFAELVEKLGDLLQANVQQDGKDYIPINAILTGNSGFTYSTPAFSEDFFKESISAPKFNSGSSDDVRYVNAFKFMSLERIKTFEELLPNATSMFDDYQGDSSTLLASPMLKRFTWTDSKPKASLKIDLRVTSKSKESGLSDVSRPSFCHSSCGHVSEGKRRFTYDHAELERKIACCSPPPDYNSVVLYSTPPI
MAPK1(h), sequence (P27361 whole entry): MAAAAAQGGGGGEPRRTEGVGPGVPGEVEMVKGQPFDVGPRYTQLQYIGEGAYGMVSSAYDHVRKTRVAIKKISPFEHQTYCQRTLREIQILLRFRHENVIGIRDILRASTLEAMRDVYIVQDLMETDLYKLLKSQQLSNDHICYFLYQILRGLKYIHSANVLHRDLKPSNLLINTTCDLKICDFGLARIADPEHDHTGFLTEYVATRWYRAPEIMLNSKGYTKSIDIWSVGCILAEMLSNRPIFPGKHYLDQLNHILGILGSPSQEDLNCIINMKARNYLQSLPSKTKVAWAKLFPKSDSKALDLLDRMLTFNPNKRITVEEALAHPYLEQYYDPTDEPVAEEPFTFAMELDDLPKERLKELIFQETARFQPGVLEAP
MEK1(h), sequence (Q02750 whole entry): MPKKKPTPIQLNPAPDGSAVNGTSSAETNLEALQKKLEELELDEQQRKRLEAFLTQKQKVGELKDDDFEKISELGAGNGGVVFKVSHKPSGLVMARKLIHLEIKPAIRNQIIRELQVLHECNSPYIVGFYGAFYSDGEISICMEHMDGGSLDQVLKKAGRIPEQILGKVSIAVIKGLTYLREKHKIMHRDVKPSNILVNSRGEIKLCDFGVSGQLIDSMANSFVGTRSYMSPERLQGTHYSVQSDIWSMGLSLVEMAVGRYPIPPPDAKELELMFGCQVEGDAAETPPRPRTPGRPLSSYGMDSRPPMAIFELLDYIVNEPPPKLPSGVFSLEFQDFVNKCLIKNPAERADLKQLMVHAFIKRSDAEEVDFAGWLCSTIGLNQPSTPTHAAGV
MKK6(h), sequence (P52564 whole entry): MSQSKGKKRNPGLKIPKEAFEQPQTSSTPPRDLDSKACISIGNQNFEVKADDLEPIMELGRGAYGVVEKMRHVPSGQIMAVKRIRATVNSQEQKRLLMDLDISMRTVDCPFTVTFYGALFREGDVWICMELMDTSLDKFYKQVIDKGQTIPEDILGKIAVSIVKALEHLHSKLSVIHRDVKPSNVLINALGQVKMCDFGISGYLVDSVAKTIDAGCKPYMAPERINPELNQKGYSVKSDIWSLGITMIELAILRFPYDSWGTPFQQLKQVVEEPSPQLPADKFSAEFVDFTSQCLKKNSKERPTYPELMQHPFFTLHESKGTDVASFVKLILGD
PKCζ(h), sequence (Q05513 whole entry): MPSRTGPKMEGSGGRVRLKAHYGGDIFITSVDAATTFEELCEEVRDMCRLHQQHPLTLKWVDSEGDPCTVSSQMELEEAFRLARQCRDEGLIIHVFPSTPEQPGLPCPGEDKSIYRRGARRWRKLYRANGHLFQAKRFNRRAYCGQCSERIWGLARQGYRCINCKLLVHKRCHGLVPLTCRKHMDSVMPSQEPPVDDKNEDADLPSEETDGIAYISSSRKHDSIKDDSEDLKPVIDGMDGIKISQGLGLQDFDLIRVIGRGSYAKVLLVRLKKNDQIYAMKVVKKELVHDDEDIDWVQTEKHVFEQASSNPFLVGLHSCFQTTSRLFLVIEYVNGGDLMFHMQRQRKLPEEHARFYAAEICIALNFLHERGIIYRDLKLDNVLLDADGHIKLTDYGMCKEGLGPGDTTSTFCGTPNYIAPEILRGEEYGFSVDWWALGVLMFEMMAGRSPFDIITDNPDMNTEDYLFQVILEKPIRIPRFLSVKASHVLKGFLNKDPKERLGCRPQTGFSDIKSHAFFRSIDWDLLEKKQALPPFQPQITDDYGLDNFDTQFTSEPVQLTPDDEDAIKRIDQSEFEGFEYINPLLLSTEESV
Pim-1(h), sequence (P11309 whole entry): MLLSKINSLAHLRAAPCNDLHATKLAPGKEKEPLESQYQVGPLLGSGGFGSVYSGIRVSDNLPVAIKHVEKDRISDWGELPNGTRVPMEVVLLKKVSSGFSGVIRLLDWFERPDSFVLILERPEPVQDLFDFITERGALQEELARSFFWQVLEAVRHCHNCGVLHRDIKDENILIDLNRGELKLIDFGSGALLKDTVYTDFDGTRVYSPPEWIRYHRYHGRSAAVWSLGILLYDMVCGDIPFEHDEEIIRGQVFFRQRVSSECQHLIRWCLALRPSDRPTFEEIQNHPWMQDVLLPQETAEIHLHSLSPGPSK
PKCδ(h), sequence (Q05655 whole entry): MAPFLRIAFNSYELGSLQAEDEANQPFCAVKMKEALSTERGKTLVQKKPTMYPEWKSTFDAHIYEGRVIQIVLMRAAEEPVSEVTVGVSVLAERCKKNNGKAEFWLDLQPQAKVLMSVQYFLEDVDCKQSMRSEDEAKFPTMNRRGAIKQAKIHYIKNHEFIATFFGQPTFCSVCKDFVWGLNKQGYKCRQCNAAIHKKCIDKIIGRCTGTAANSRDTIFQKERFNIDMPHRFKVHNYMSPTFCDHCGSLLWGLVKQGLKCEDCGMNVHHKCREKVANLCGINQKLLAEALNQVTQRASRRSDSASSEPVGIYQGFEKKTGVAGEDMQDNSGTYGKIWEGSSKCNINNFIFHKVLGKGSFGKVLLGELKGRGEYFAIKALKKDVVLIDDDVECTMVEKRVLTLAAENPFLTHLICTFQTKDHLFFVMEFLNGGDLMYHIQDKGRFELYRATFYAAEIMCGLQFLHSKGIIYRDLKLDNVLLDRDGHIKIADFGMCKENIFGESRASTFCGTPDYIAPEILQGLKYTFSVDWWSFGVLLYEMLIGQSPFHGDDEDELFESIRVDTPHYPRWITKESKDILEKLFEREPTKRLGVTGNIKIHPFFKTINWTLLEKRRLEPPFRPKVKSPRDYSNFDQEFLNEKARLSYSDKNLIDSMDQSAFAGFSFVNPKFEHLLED
Bmx(h), sequence (P51813 whole entry): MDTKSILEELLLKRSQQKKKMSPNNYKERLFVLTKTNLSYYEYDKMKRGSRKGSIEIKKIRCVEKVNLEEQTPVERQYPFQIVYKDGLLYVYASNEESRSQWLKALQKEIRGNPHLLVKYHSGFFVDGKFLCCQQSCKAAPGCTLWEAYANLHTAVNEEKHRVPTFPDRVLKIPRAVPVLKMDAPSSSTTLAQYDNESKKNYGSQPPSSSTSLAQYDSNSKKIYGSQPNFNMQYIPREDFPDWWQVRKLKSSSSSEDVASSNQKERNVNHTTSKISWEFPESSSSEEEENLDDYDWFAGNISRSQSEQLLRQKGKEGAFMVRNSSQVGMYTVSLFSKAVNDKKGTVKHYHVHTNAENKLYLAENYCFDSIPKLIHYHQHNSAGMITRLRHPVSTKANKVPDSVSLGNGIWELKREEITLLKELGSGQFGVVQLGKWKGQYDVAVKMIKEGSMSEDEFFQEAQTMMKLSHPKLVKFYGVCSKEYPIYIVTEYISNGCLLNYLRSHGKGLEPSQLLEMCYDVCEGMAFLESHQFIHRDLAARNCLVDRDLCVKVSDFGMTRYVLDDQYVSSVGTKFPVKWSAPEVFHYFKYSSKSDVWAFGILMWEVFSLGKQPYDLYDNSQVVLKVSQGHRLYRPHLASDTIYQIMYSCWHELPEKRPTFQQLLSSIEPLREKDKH
NEK6(h), sequence (Q9HC98 whole entry): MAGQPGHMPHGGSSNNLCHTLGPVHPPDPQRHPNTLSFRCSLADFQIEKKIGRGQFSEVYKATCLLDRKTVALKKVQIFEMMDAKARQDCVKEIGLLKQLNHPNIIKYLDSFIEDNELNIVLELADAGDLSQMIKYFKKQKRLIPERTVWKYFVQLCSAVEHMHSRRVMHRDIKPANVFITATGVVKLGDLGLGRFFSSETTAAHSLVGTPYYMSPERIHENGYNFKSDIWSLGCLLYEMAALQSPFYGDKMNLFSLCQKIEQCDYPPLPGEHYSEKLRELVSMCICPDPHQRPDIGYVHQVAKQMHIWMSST

## COc1cc(O)c2c(c1)[C@H]1O[C@@H]1C[C@H](O)[C@H](O)C(=O)/C=C\C[C@H](C)OC2=O [Hypothemycin, hypothemycin]
[1]
  remaining activity at 0.2 µM: 87%
[2]
  remaining activity at 0.2 µM: 102%
[3]
  remaining activity at 0.2 µM: 99%
[4]
  remaining activity at 0.2 µM: 103%
[5]
  remaining activity at 0.2 µM: 102%
[6]
  remaining activity at 0.2 µM: 104%
[7]
  remaining activity at 0.2 µM: 92%
[8]
  remaining activity at 0.2 µM: 96%
[9]
  remaining activity at 0.2 µM: 98%
[10]
  remaining activity at 0.2 µM: 101%
[11]
  remaining activity at 0.2 µM: 104%
[12]
  remaining activity at 0.2 µM: 89%
[13]
  remaining activity at 0.2 µM: 93%
[14]
  remaining activity at 0.2 µM: 101%
[15]
  remaining activity at 0.2 µM: 100%
[16]
  remaining activity at 0.2 µM: 93%
[17]
  remaining activity at 0.2 µM: 84%
[18]
  remaining activity at 0.2 µM: 100%
[19]
  remaining activity at 0.2 µM: 99%
[20]
  remaining activity at 0.2 µM: 94%
[21]
  remaining activity at 0.2 µM: 99%
[22]
  remaining activity at 0.2 µM: 97%
[23]
  remaining activity at 0.2 µM: 107%
[24]
  remaining activity at 0.2 µM: 99%
[25]
  remaining activity at 0.2 µM: 90%
[26]
  remaining activity at 0.2 µM: 153%
[27]
  remaining activity at 0.2 µM: 100%
[28]
  remaining activity at 0.2 µM: 82%
[29]; 0.2 μM
  remaining activity at 0.2 µM: 43%
[29]; 2.0 μM
  remaining activity at 2 µM: 8%
[30]
  remaining activity at 0.2 µM: 106%
[31]
  remaining activity at 0.2 µM: 111%
[32]; 0.2 μM
  remaining activity at 0.2 µM: 54%
[32]; 2.0 μM
  remaining activity at 2 µM: 8%
[33]
  remaining activity at 0.2 µM: 102%
[34]
  remaining activity at 0.2 µM: 101%
[35]
  remaining activity at 0.2 µM: 102%
[36]; 0.2 μM
  remaining activity at 0.2 µM: 79%
[36]; 2.0 μM
  remaining activity at 2 µM: 10%
[37]
  remaining activity at 0.2 µM: 94%
[38]; 0.2 μM
  remaining activity at 0.2 µM: 2%
[38]; 2.0 μM
  remaining activity at 2 µM: 7%
[39]
  remaining activity at 0.2 µM: 104%

Source: patent US20100004234A1, “SPECIFIC KINASE INHIBITORS” (Kosan Biosciences Incorporated, priority 2004, published 2010)
